Marks after values point to notes of the source that are not given here.
How the values were obtained:
KK-Ay mice = test: Serum metabolic parameters in high-fat diet fed diabetic KK-Ay mice; type: in vivo, mouse; conditions: 10 mg/kg for 14 days, vehicle 253 ± 11
Description: (§1) KK-Ay mice (KK/Upj-Ay/J) are animal models with moderate obese and diabetes with insulin resistance. KK-Ay mice develop hyperglycemia, hyperinsulinemia, glucose intolerance and obesity as well as fat accumulation in liver by eight weeks of age. Pancreatic islets are hypertrophied and the β-cells are degranulated. db/db mice (BKS.Cg-Dockr+/+ Lepr^db/Jnju) are animal models of type II diabetes. They have the phenotype of insulin resistance. These model mice were used to detect the functions of our compounds on metabolic diseases.
(§2) 8-10 weeks age mice were maintained as example 4, and fed with high-fat diet (Research Diets, D12492). Mice were i.p. injected with compounds once daily for 7, 10, 11 or 14 days as indicated in each table. After the last compounds injection, mice were fasted for 6 hours with free access to water, and then sacrificed. Part of each liver was fixed in 4% paraformaldehyde for H&E staining, and other liver tissues were stored in liquid nitrogen for enzyme activity measurement and gene expression analysis by RT-PCR. The serums were collected to measure metabolic parameters, including serum glucose, insulin, cholesterol, free fatty acid (FFA) and triglyceride levels. Serum glucose was analyzed using glucose oxidase method (Applygen, Beijing, China). The blood glucose in Table 11 was measured with Berenger blood glucose test strips (B/BRAUN, German) from blood by cutting mice tail after the 6th injection and following fast for 16 hours. Serum cholesterol and FFA were analyzed using Cholesterol Assay Kit and FFA Assay Kit (Bioassay Systems, USA; Nanjing Jiancheng Bioengineering Institute, China; FFA ELISA, R&D, USA), respectively. Serum triglyceride was analyzed using Triglyceride Assay Kit (Bioassay Systems, USA; WAKO Chemicals Inc., Japan; Applygen, Beijing, China). Liver triglyceride was analyzed using Tissue triglyceride assay kit (Applygen, Beijing, China). Serum insulin levels were measured by the Ultra Sensitive Mouse Insulin ELISA Kit (Crystal Chem. Inc., USA). RNA was isolated using Tissue RNA kit (Omega Bio-Tek, GA). The first strand cDNA were obtained by TAKARA reverse transcription kit. Real-time quantitative PCR were performed on a CFX96™ Real-Time PCR Detection System (Bio-Rad) using SYBR Premix Ex Taq™ (TAKARA). Relative mRNA expression levels were normalized to actin levels.

[1] = tested on: mouse embryonic fibroblasts (MEFs); test: GSH levels in mouse embryonic fibroblasts (MEFs); type: cell-based; conditions: 20 μM, 24 hours, vehicle 31 ± 6
Description: The reduced glutathione (GSH) is a natural antioxidant in cells and plays important function responding the oxidative stress. The GSH levels will decrease with age, infection, poisoning, exogenous toxins and oxidative stress. The Sestrin2 (Sesn2) gene encodes a conserved antioxidant protein that is induced on oxidative stress and protects cells against reactive oxygen species. SOD2 is an antioxidant enzyme. The antioxidants are defense system for organ to prevent damage by free radical. In this example, the mouse embryonic fibroblasts (MEFs) were treated with compounds for 24 hours, and the GSH levels were analyzed using GSH kit (Nanjing Jiancheng Engineering Institute, China). […] Correspondingly, the expression levels of the antioxidant genes such as SOD2 and SESN2 increased in compounds treated MEFs (Table 26 and Table 28).

db/db mice = test: Serum/blood metabolic parameters in high-fat diet fed db/db mice; type: in vivo, mouse; conditions: 50 mg/kg for 7 days
Description: as §1
as §2, with “actin levels. […]” for “actin levels.”

[2] = Clearance of superoxide anion radical in vitro; conditions: method of CN 102813683 B, p<0.01
[3] = tested on: mice with APAP-induced liver injury; test: Acetaminophen (APAP)-induced liver injury in mouse; type: in vivo
Description: Methods: Acetaminophen (APAP)-induced liver injury in mouse is a commonly used model to study drugs protecting liver. Overdose of APAP causes liver injury by inducing the production of reactive oxygen species and reactive nitrogen species, and excessive consumption of reductive substances such as antioxidant glutathione (GSH), leading to the reduction of GSH in vivo, and the following upregulation of the activities of the aspartate aminotransferase (AST), the alanine aminotransferase (ALT) and the lactate dehydrogenase (LDH), which will result in liver inflammation and necrosis. In this example, the APAP-induced liver injury was used to detect the protection and repair functions of our compounds in liver injury.
One-year or 8-week age mice were maintained under environmentally controlled conditions with free access to standard chow diet and water. Animal experiments were conducted in the barrier facility of the Laboratory Animal Center, Xiamen University, approved by the Institutional Animal Use and Care Committee of Xiamen University, China.
Compounds were solved with DMSO and then prepared to work concentration with 40% HBC (2-hydroxypropyl-β-cyclodextrin) in which the final work concentrations of compounds are 5 mg/kg body weight, 10 mg/kg or 20 mg/kg in 100 μl injection volume and the concentration of DMSO is 10%. Compounds were intraperitoneal (i.p.) injected once daily for five days. For Feroline and Tschimganine, one-year age mice were used in the experiment. For other compounds, 8-week age mice were used. […] For Tschimganine, 20 mg/kg dose of compound was administered to mice. For other compounds, 5 mg/kg dose of compounds were administered to mice. Six hours after the fifth injection, 500 mg/kg body weight of APAP solved in PBS was i.p. injected to the mice. 24 hours later, mice were sacrificed. Part of each liver was fixed in 4% paraformaldehyde, and the liver histology characterization was analyzed by haematoxylin and eosin (H&E) staining with paraffin-embedded sections by standard procedures. Other liver tissues were collected for detecting the GSH levels, and the mRNA expression of genes involved in liver repairing, such as GPX1 and UGT1a1, by RT-PCR. The serums were collected to measure enzymes activities including AST, ALT and LDH. For the synthetic derivatives, ALT and GSH were selected as indicating markers for the function of these compounds.

Hedragonic acid
Serum Glucose (mg/dl) (KK-Ay mice): 161 ± 21^b mg/dl | GSH (μM) [1]: 72 ± 9^a μM | Serum Insulin (ng/ml) (db/db mice; vehicle 12 ± 3): 4.65 ± 0.2^b ng/ml | Serum Glucose (mg/dl) (db/db mice; vehicle 521 ± 54): 334 ± 50^a mg/dl | clearance rate to superoxide anion radical [2]: 58%±6.4% | Liver morphology by H&E staining (FIG. 1) ([3]; 10 mg/kg (Tschimganine 20 mg/kg) i.p. five days, then APAP, compared to severe liver injury in control group): almost normal liver morphology | expression levels of GPX1 and UGT1α1 in liver ([3]; mRNA by RT-PCR, vs vehicle control group, Table 5 (not given)): significantly upregulated | activities of serum AST, ALT and LDH ([3]; vs vehicle control group, Table 5 (not given)): dramatically lower

Reference: patent US20180116993A1, “MODULATORS OF FARNESOID X RECEPTOR AND METHODS FOR THE USE THEREOF” (XIAMEN UNIVERSITY, priority 2015, published 2018)
